In US20260372303A1, “5-Fluoro-4-Imino-3-Methyl-1-Tosyl-3, 4-Dihydropyrimidin-2(1H) -One for Fungicide-Resistant Fungus” (priority 2022, published 2026):

What was measured:
Format in all cases: in vivo
[1] = system: Zymoseptoria tritici strain Zt StA; assay: In planta preventive efficacy on wheat cv. Alixan against Zymoseptoria tritici strain Zt StA (control strain, sensitive); settings: for Disease Severity Intensity: % of length of 2nd leaf blade, preventive 24 h; for AUDPC: control 781.6
Description: (§1) A series of experiments were conducted to evaluate the efficacy of flumetylsulforim (ADF-16) for treating different strains of Zymoseptoria tritici in comparison with commercially available fungicides. Table 1 describes the Z. tritici strains used in this study and Table 2 describes the fungicides used in this study.
(§2) Winter wheat plants cv. Alixan (Limagrain) at the BBCH 12 growth stage were treated preventively with sterile distilled water (control), ADF-16, penthiopyrad, metconazole or tebuconazole at the rates described in Table 2 with a hand sprayer at 2 bars.
(§3) After treatment, wheat plants were left to dry at room temperature for 1 hour and then placed in a climatic chamber: temperature of 24 °C day/18 °C night-photoperiod of 16 h light/8 h dark and a relative humidity of 65%.
(§4) Untreated or treated whole wheat plants were inoculated 24-hours post-treatment with a calibrated pycnospore suspension of Z. tritici strains Zt StA, Zt 61, Zt 99, Zt 20, Zt 19-52, and Zt 38-02. Three replicates (pots) of 6 wheat plants each were used for each condition tested.
(§5) After inoculation, pots were transferred in a climatic chamber: temperature of 20 °C day/17 °C night—photoperiod of 16 h light/8 h dark and controlled relative humidity.
(§6) Disease assessments were carried out at 15 days post inoculation (dpi), 21 dpi and 28 dpi by measuring the length of the necrosis on the second leaf blade. The intensity of infection was then determined as a percentage of the total length of 2nd leaf blade.
(§7) The fungicide efficacies were determined from the Area Under the Disease Progress Curve (AUDPC) values and expressed as a percentage of the untreated control.
(§8) The AUDPC is a quantitative measure of disease intensity over time. The most commonly used method for estimating the AUDPC, the trapezoidal method, is performed by multiplying the average disease intensity between each pair of adjacent timepoints by the corresponding time interval and this for each time interval. The AUDPC is determined with the following formula by adding all of the trapezoids:
(§9) [formula] • yi=disease severity at the ith observation • ti=time (days) at the ith observation • N=total number of observations

[2] = system: Zymoseptoria tritici strain Zt 61; assay: In planta preventive efficacy on wheat cv. Alixan against Zymoseptoria tritici strain Zt 61; parameters: fungicide efficacy: concentration or dose not given beside the values; settings: for Disease Severity Intensity: % of length of 2nd leaf blade, preventive 24 h; for AUDPC: control 1194.9
Description: as §1, §2, §3, §4, §5, §6, §7, §8, §9

[3] = system: Zymoseptoria tritici strain Zt 99; assay: In planta preventive efficacy on wheat cv. Alixan against Zymoseptoria tritici strain Zt 99; settings: for Disease Severity Intensity: % of length of 2nd leaf blade, preventive 24 h; for AUDPC: control 1352.9
Description: as §1, §2, §3, §4, §5, §6, §7, §8, §9

[4] = system: Zymoseptoria tritici strain Zt 19-52; assay: In planta preventive efficacy on wheat cv. Alixan against Zymoseptoria tritici strain Zt 19-52; settings: % of length of 2nd leaf blade, preventive 24 h
Description: as §1, §2, §3, §4, §5, §6, §7, §8, §9

[5] = system: Zymoseptoria tritici strain Zt 20; assay: In planta preventive efficacy on wheat cv. Alixan against Zymoseptoria tritici strain Zt 20; settings: % of length of 2nd leaf blade, preventive 24 h
Description: as §1, §2, §3, §4, §5, §6, §7, §8, §9

[6] = system: Zymoseptoria tritici strain Zt 38-02; assay: In planta preventive efficacy on wheat cv. Alixan against Zymoseptoria tritici strain Zt 38-02; settings: for Disease Severity Intensity: % of length of 2nd leaf blade, preventive 24 h; for AUDPC: control 1261.4
Description: as §1, §2, §3, §4, §5, §6, §7, §8, §9

[7] = 15 dpi, rate N (g a.i./ha): ADF-16 100, penthiopyrad 200, metconazole 90, tebuconazole 250, control also no disease
[8] = 15 dpi, rate N/2.5 (g a.i./ha): ADF-16 40, penthiopyrad 80, metconazole 36, tebuconazole 100, control also no disease
[9] = rate N (g a.i./ha): ADF-16 100, penthiopyrad 200, metconazole 90, tebuconazole 250
[10] = rate N/2.5 (g a.i./ha): ADF-16 40, penthiopyrad 80, metconazole 36, tebuconazole 100

CC(C)(C)C(O)(CCc1ccc(Cl)cc1)Cn1cncn1 (stereo not drawn) [Tebuconazole]
Disease Severity Intensity [1, 7]: No disease | Disease Severity Intensity [1, 8]: No disease | Disease Severity Intensity ([1]; 21 dpi, rate N (g a.i./ha): ADF-16 100, penthiopyrad 200, metconazole 90, tebuconazole 250, control 36.5): 0.0 +/− 0.0b % | Disease Severity Intensity ([1]; 21 dpi, rate N/2.5 (g a.i./ha): ADF-16 40, penthiopyrad 80, metconazole 36, tebuconazole 100, control 36.5): 0.0 +/− 0.0b % | Disease Severity Intensity ([1]; 28 dpi, rate N (g a.i./ha): ADF-16 100, penthiopyrad 200, metconazole 90, tebuconazole 250, control 77.4): 0.0 +/− 0.0b % | Disease Severity Intensity ([1]; 28 dpi, rate N/2.5 (g a.i./ha): ADF-16 40, penthiopyrad 80, metconazole 36, tebuconazole 100, control 77.4): 0.0 +/− 0.0b % | Efficacy (from AUDPC, percentage of the untreated control) [1, 9]: 100% | AUDPC [1, 9]: 0.0 +/− 0.0b | Efficacy (from AUDPC, percentage of the untreated control) [1, 10]: 100% | AUDPC [1, 10]: 0.0 +/− 0.0b | Disease Severity Intensity [2, 7]: No disease | Disease Severity Intensity [2, 8]: No disease | Disease Severity Intensity ([2]; 21 dpi, rate N (g a.i./ha): ADF-16 100, penthiopyrad 200, metconazole 90, tebuconazole 250, control 63.3): 1.5 +/− 0.9d % | Disease Severity Intensity ([2]; 21 dpi, rate N/2.5 (g a.i./ha): ADF-16 40, penthiopyrad 80, metconazole 36, tebuconazole 100, control 63.3): 11.8 +/− 3.6c % | Disease Severity Intensity ([2]; 28 dpi, rate N (g a.i./ha): ADF-16 100, penthiopyrad 200, metconazole 90, tebuconazole 250, control 88.1): 30.7 +/− 5.3d % | Disease Severity Intensity ([2]; 28 dpi, rate N/2.5 (g a.i./ha): ADF-16 40, penthiopyrad 80, metconazole 36, tebuconazole 100, control 88.1): 54.3 +/− 6.2c % | fungicide efficacy ([2]; higher application rates (N)): ≥ 85% | fungicide efficacy ([2]; lower application rates (N/2.5)): ≤ 70% | Efficacy (from AUDPC, percentage of the untreated control) [2, 9]: 89.5% | AUDPC [2, 9]: 125.1 ± 46.8 days | Efficacy (from AUDPC, percentage of the untreated control) [2, 10]: 70.3% | AUDPC [2, 10]: 354.9 +/− 103.8bc | Disease Severity Intensity ([3]; 15 dpi, rate N (g a.i./ha): ADF-16 100, penthiopyrad 200, metconazole 90, tebuconazole 250, control 47.9): 0.0 +/− 0.0d % | Disease Severity Intensity ([3]; 15 dpi, rate N/2.5 (g a.i./ha): ADF-16 40, penthiopyrad 80, metconazole 36, tebuconazole 100, control 47.9): 0.0 +/− 0.0d % | Disease Severity Intensity ([3]; 21 dpi, rate N (g a.i./ha): ADF-16 100, penthiopyrad 200, metconazole 90, tebuconazole 250, control 81.0): 1.5 +/− 0.8f % | Disease Severity Intensity ([3]; 21 dpi, rate N/2.5 (g a.i./ha): ADF-16 40, penthiopyrad 80, metconazole 36, tebuconazole 100, control 81.0): 12.1 +/− 1.7e % | Disease Severity Intensity ([3]; 28 dpi, rate N (g a.i./ha): ADF-16 100, penthiopyrad 200, metconazole 90, tebuconazole 250, control 92.2): 12.8 +/− 2.5d % | Disease Severity Intensity ([3]; 28 dpi, rate N/2.5 (g a.i./ha): ADF-16 40, penthiopyrad 80, metconazole 36, tebuconazole 100, control 92.2): 58.7 +/− 4.6c % | Efficacy (from AUDPC, percentage of the untreated control) [3, 9]: 96.0% | AUDPC [3, 9]: 54.0 ± 3.3 g | Efficacy (from AUDPC, percentage of the untreated control) [3, 10]: 79.0% | AUDPC [3, 10]: 283.9 +/− 30.0f^ | Disease Severity Intensity ([4]; 15 dpi, rate N (g a.i./ha): ADF-16 100, penthiopyrad 200, metconazole 90, tebuconazole 250, control 22.0): 0.0 +/− 0.0b % | Disease Severity Intensity ([4]; 15 dpi, rate N/2.5 (g a.i./ha): ADF-16 40, penthiopyrad 80, metconazole 36, tebuconazole 100, control 22.0): 0.0 +/− 0.0b % | Disease Severity Intensity ([4]; 21 dpi, rate N (g a.i./ha): ADF-16 100, penthiopyrad 200, metconazole 90, tebuconazole 250, control 81.7): 0.2 +/− 0.2c % | Disease Severity Intensity ([4]; 21 dpi, rate N/2.5 (g a.i./ha): ADF-16 40, penthiopyrad 80, metconazole 36, tebuconazole 100, control 81.7): 0.7 +/− 0.4bc % | Disease Severity Intensity ([4]; 28 dpi, rate N (g a.i./ha): ADF-16 100, penthiopyrad 200, metconazole 90, tebuconazole 250, control 91.0): 7.9 +/− 2.2cd % | Disease Severity Intensity ([4]; 28 dpi, rate N/2.5 (g a.i./ha): ADF-16 40, penthiopyrad 80, metconazole 36, tebuconazole 100, control 91.0): 13.1 +/− 2.3c % | Disease Severity Intensity [5, 7]: No disease | Disease Severity Intensity [5, 8]: No disease | Disease Severity Intensity ([5]; 21 dpi, rate N (g a.i./ha): ADF-16 100, penthiopyrad 200, metconazole 90, tebuconazole 250, control 77.2): 0.6 +/− 0.5de % | Disease Severity Intensity ([5]; 21 dpi, rate N/2.5 (g a.i./ha): ADF-16 40, penthiopyrad 80, metconazole 36, tebuconazole 100, control 77.2): 4.6 +/− 1.3c % | Disease Severity Intensity ([5]; 28 dpi, rate N (g a.i./ha): ADF-16 100, penthiopyrad 200, metconazole 90, tebuconazole 250, control 95.5): 17.1 +/− 1.9e % | Disease Severity Intensity ([5]; 28 dpi, rate N/2.5 (g a.i./ha): ADF-16 40, penthiopyrad 80, metconazole 36, tebuconazole 100, control 95.5): 54.8 +/− 3.7c % | Disease Severity Intensity ([6]; 15 dpi, rate N (g a.i./ha): ADF-16 100, penthiopyrad 200, metconazole 90, tebuconazole 250, control 36.0): 0.0 +/− 0.0b % | Disease Severity Intensity ([6]; 15 dpi, rate N/2.5 (g a.i./ha): ADF-16 40, penthiopyrad 80, metconazole 36, tebuconazole 100, control 36.0): 0.0 +/− 0.0b % | Disease Severity Intensity ([6]; 21 dpi, rate N (g a.i./ha): ADF-16 100, penthiopyrad 200, metconazole 90, tebuconazole 250, control 84.3): 9.3 +/− 1.9e % | Disease Severity Intensity ([6]; 21 dpi, rate N/2.5 (g a.i./ha): ADF-16 40, penthiopyrad 80, metconazole 36, tebuconazole 100, control 84.3): 62.2 +/− 4.5bc % | Disease Severity Intensity ([6]; 28 dpi, rate N (g a.i./ha): ADF-16 100, penthiopyrad 200, metconazole 90, tebuconazole 250, control 95.7): 45.1 +/− 4.0d % | Disease Severity Intensity ([6]; 28 dpi, rate N/2.5 (g a.i./ha): ADF-16 40, penthiopyrad 80, metconazole 36, tebuconazole 100, control 95.7): 93.3 +/− 0.9ab % | Efficacy (from AUDPC, percentage of the untreated control) [6, 9]: 82.7% | AUDPC [6, 9]: 218.1 ± 3.5 days | Efficacy (from AUDPC, percentage of the untreated control) [6, 10]: 42.3% | AUDPC [6, 10]: 728.1 +/− 31.6b
